Assay results as given in US7196229B2, “Benzoylcyclohexenone derivatives” (BASF Aktiengesellschaft, priority 2001, dated 2007).

What was measured:
[1] = tested on: ABUTH; assay: greenhouse post-emergence herbicidal test; type: in vivo, velvetleaf; details: application rates of 0.125 or 0.0625 kg/ha
Text: (§1) The seeds of the test plants were sown separately for each species. For the post-emergence treatment, the test plants were first grown to a height of from 3 to 15 cm, depending on the plant habit, and only then treated with the active compounds which had been suspended or emulsified in water. The test plants were for this purpose either sown directly and grown in the same containers, or they were first grown separately as seedlings and transplanted into the test containers a few days prior to treatment. The application rate for the post-emergence treatment was 0.125 and 0.0625 kg of a.s. (active substance)/ha. Depending on the species, the plants were kept at 10–25° C. or 20–35° C. The test period extended over 2 to 4 weeks. During this time, the plants were tended, and their response to the individual treatments was evaluated. The evaluation was carried out using a scale from 0 to 100. 100 means no emergence of the plants, or complete destruction of at least the aerial parts and 0 means no damage, or normal course of growth. The plants used in the greenhouse experiments were of the following species: [table]

[2] = tested on: ECHCG; assay: greenhouse post-emergence herbicidal test; type: in vivo, barnyard grass; details: application rates of 0.125 or 0.0625 kg/ha
Text: as §1

[3] = tested on: CHEAL; assay: greenhouse post-emergence herbicidal test; type: in vivo, lambsquarters; details: application rates of 0.125 or 0.0625 kg/ha
Text: as §1

[4] = tested on: POLPE; assay: greenhouse post-emergence herbicidal test; type: in vivo, ladys thumb; details: application rates of 0.125 or 0.0625 kg/ha
Text: as §1

[5] = tested on: PHBPU; assay: greenhouse post-emergence herbicidal test; type: in vivo, morning glory; details: application rates of 0.125 or 0.0625 kg/ha
Text: as §1

[6] = tested on: SETFA; assay: greenhouse post-emergence herbicidal test; type: in vivo, giant foxtail; details: application rates of 0.125 or 0.0625 kg/ha
Text: as §1

[7] = tested on: AMARE; assay: greenhouse post-emergence herbicidal test; type: in vivo, redroot pigweed; details: application rates of 0.125 or 0.0625 kg/ha
Text: as §1

**Q.** Which “herbicidal post-emergence activity against ABUTH” value [1] does the source give for Cc1c(C(=O)C2=C(O)CCCC2=O)ccc(S(C)(=O)=O)c1S(C)(=O)=O [Compound 2.1, 2-[2-Methyl-3,4-di(methylsulfonyl)benzoyl]cyclohexane-1,3-dione] here?
**A.** The value was “very good”.

**Q.** And the “herbicidal post-emergence activity against ECHCG” value [2]?
**A.** Its value is “very good”.

**Q.** And the “herbicidal post-emergence activity against CHEAL” value [3]?
**A.** The value was “very good”.

**Q.** What about the “herbicidal post-emergence activity against POLPE” value [4] of the same compound?
**A.** The value was “very good”.

**Q.** What about the melting point of the same compound?
**A.** The melting point was 301 to 302 °C.

**Q.** Which “herbicidal post-emergence activity against ABUTH” value [1] does the source give for Cc1c(C(=O)C2=C(O)CC(C)CC2=O)ccc(S(C)(=O)=O)c1S(C)(=O)=O (centres unmarked) [Compound 2.3] here?
**A.** The value was “very good”.

**Q.** What about the “herbicidal post-emergence activity against ECHCG” value [2] of the same compound?
**A.** The value was “very good”.

**Q.** What about the “herbicidal post-emergence activity against CHEAL” value [3] of the same compound?
**A.** Its value is “very good”.

**Q.** What about the “herbicidal post-emergence activity against PHBPU” value [5] of the same compound?
**A.** The value was “very good”.

**Q.** And the melting point?
**A.** The melting point was 235 to 239 °C.

**Q.** Which results are given for Cc1c(C(=O)C2=C(O)CCC(C)(C)C2=O)ccc(S(C)(=O)=O)c1S(C)(=O)=O [Compound 2.4]?
**A.** herbicidal post-emergence activity against ECHCG [2]: very good; herbicidal post-emergence activity against CHEAL [3]: very good; herbicidal post-emergence activity against SETFA [6]: very good; herbicidal post-emergence activity against PHBPU [5]: very good

**Q.** With Cc1c(C(=O)C2=C(O)CC(C)(C)CC2=O)ccc(S(C)(=O)=O)c1S(C)(=O)=O [Compound 2.5] as the compound, how does the “herbicidal post-emergence activity against ECHCG” value [2] read?
**A.** The value was “very good”.

**Q.** What about the “herbicidal post-emergence activity against CHEAL” value [3] of the same compound?
**A.** The value was “very good”.

**Q.** What about the “herbicidal post-emergence activity against SETFA” value [6] of the same compound?
**A.** Its value is “very good”.

**Q.** What about the “herbicidal post-emergence activity against AMARE” value [7] of the same compound?
**A.** Its value is “very good”.

**Q.** With Cc1c(C(=O)C2=C(O)CCCC2=O)ccc(Cl)c1S(C)(=O)=O [Compound 2.6] as the compound, how does the “herbicidal post-emergence activity against ABUTH” value [1] read?
**A.** Its value is “very good”.

**Q.** What about the “herbicidal post-emergence activity against ECHCG” value [2] of the same compound?
**A.** Its value is “very good”.

**Q.** And the “herbicidal post-emergence activity against POLPE” value [4]?
**A.** Its value is “very good”.

**Q.** And the “herbicidal post-emergence activity against SETFA” value [6]?
**A.** Its value is “very good”.

**Q.** And the melting point?
**A.** Its melting point is 137 to 140 °C.

**Q.** Which melting point does the source give for COc1ccc(C(=O)C2=C(O)CCCC2=O)c(C)c1S(C)(=O)=O [Compound 2.7] here?
**A.** The melting point was 121 to 129 °C.

**Q.** For COc1ccc(C(=O)C2=C(O)CC(C)(C)CC2=O)c(C)c1S(C)(=O)=O [Compound 2.8], which melting point is on record?
**A.** The melting point was 163 to 165 °C.

**Q.** Which melting point does the source give for COc1ccc(C(=O)C2=C(O)CC(C)CC2=O)c(C)c1S(C)(=O)=O (centres unmarked) [Compound 2.9] here?
**A.** The melting point was 106 to 112 °C.

**Q.** With Cc1c(C(=O)C2=C(O)CCCC2=O)ccc(OC(F)F)c1S(C)(=O)=O [Compound 2.10] as the compound, how does the melting point read?
**A.** Its melting point is 64 to 69 °C.

**Q.** Which melting point does the source give for Cc1c(C(=O)C2=C(n3cccn3)CCCC2=O)ccc(S(C)(=O)=O)c1S(C)(=O)=O [Compound 3.1] here?
**A.** The melting point was 275 to 277 °C.

**Q.** With Cc1c(C(=O)C2=C(n3cccn3)CC(C)CC2=O)ccc(S(C)(=O)=O)c1S(C)(=O)=O (centres unmarked) [Compound 3.2] as the compound, how does the melting point read?
**A.** The melting point was 278 to 283 °C.
